Data: paper PMC4926359, “Cloning, Expression and 3D Structure Prediction of Chitinase from Chitinolyticbacter meiyuanensis SYBC-H1” (International Journal of Molecular Sciences, 2016)

Tested on: CHI2 chitinase
Assay: p-nitrophenol release at […] nm, Lineweaver-Burk
Format: biochemical, Chitinolyticbacter meiyuanensis
Conditions: 50 mM sodium phosphate pH 7.0, 37 °C; substrate range 50-250 μM; unit contradictory in the paper: mM in b32 and b39, µmol/L in abstract b1

Km: 23 mM
Compound: CC(=O)N[C@H]1[C@H](Oc2ccc([N+](=O)[O-])cc2)O[C@H](CO)[C@@H](O)[C@@H]1O [p-NP-GlcNAc]
